Values joined by “and” are separate entries in the source; they are usually repeats but may differ in a detail not shown here. Equal values may be shown once.
Tested on: HL60 (human promyelocytic leukemia) cells
Experiment: LMA-FlexMAP bead-based gene expression signature analysis of total RNA from HL60 cells treated with tretinoin or DMSO (ninety transcripts); as to FlexMap NM 003332 LUA#43: test concentration or dose not given here
Conditions: replicate columns
[1] = Experiment 2, HL60 cells, Tretinoin-treated

CC1=C(/C=C/C(C)=C/C=C/C(C)=C/C(=O)O)C(C)(C)CCC1 [tretinoin, all-trans-retinoic acid]
FlexMap NM_003132 LUA#68 (Experiment 2, Tretinoin): 635 and 618 and 721 and 690.5 and 680 and 633 and 648 and 716 | FlexMap NM_003172 LUA#19 (Experiment 2, Tretinoin): 333 (2×) and 312.5 and 370 and 365 and 330 and 352 and 380 | FlexMap NM_003332 LUA#43 (Experiment 2, Tretinoin): 2733 and 2691.5 and 2589.5 and 2832 and 2821 and 2704 and 2692 and 2772 | FlexMap NM_003581 LUA#62 (Experiment 2, Tretinoin): 55 (2×) and 54 and 114 and 78 and 85 and 59.5 and 53 | FlexMap NM_003644 LUA#17 (Experiment 2, Tretinoin): 274 (2×) and 259 and 319 and 269 and 192 and 231 and 300 | FlexMap NM_003752 LUA#82 (Experiment 2, Tretinoin): 139 and 142 and 168 and 149.5 and 150 and 153 and 162 and 164 | FlexMap NM_003879 LUA#24 (Experiment 2, Tretinoin): 95 and 96.5 and 93 and 91.5 and 86 and 84 and 82 and 97 | FlexMap NM_004079 LUA#21 (Experiment 2, Tretinoin): 150 and 147 and 144 and 133 and 133.5 and 142 and 143 and 152 | FlexMap NM_004095 LUA#59 (Experiment 2, Tretinoin): 293 (2×) and 227 and 287 and 286.5 and 270 and 294 and 331 | FlexMap NM_004106 LUA#44 (Experiment 2, Tretinoin): 1697 and 1748 and 1762 and 1756 and 1799 and 1678 and 1587.5 and 1827 | FlexMap NM_004134 LUA#76 (Experiment 2, Tretinoin): 406 and 372 and 423.5 and 417 and 415 (2×) and 383 and 426 | FlexMap NM_004152 LUA#31 (Experiment 2, Tretinoin): 2347 and 1882 and 2313 and 2471.5 and 2477.5 and 2269 and 2335.5 and 2470 | FlexMap NM_004526 LUA#88 (Experiment 2, Tretinoin): 256 and 233 and 244 and 270 and 260 and 240.5 and 243 and 277 | FlexMap NM_004602 LUA#32 (Experiment 2, Tretinoin): 303 and 274 and 320 and 337 and 334 and 363 and 355.5 and 296 | FlexMap NM_004723 LUA#20 (Experiment 2, Tretinoin): 501 and 420 and 472.5 and 498 and 506 and 470 and 487.5 and 538 | FlexMap NM_004741 LUA#89 (Experiment 2, Tretinoin): 402.5 and 370.5 and 329 and 324 and 317 and 325 and 328 | FlexMap NM_004759 LUA#37 (Experiment 2, Tretinoin): 206.5 and 235 and 284 and 179 and 207.5 and 192 and 195 and 201 | FlexMap NM_005008 LUA#77 (Experiment 2, Tretinoin): 452.5 (2×) and 393 and 501 and 482 and 432 and 439.5 and 502.5 | FlexMap NM_005375 LUA#86 (Experiment 2, Tretinoin): 565 and 642 and 552 and 568 and 593 and 585 and 589 and 587 | FlexMap NM_005566 LUA#85 (Experiment 2, Tretinoin): 744 and 745 and 851 and 821 and 830 and 748 and 752 and 776.5 | FlexMap NM_005914 LUA#60 (Experiment 2, Tretinoin): 1161.5 and 1104 and 871 and 1091 and 1131 and 1081.5 and 1125 and 1172.5 | FlexMap NM_005915 LUA#72 (Experiment 2, Tretinoin): 47 (4×) and 43 and 44 and 49 and 54 | FlexMap NM_005952 LUA#66 (Experiment 2, Tretinoin): 243 and 261.5 and 265 and 274 and 260 and 263 and 224 and 268 | FlexMap NM_005980 LUA#73 (Experiment 2, Tretinoin): 202 and 190 and 197 and 212 and 204 and 187 and 188 and 209.5 | FlexMap NM_006019 LUA#35 (Experiment 2, Tretinoin): 907 and 1033 and 1059 and 938.5 and 911.5 and 862 and 871 and 956 | FlexMap NM_006138 LUA#56 (Experiment 2, Tretinoin): 124 and 117 and 115.5 and 111 and 127 and 118 and 119.5 and 120 | FlexMap NM_006432 LUA#27 (Experiment 2, Tretinoin): 1693 and 1842 and 1767 and 1718 and 1798 and 1725 and 1678 and 1814 | FlexMap NM_006452 LUA#71 (Experiment 2, Tretinoin): 86 (2×) and 83.5 and 93 and 90 (2×) and 88 and 96 | FlexMap NM_006985 LUA#58 (Experiment 2, Tretinoin): 56 and 50 (2×) and 55 and 52 and 54 and 60 and 63 | FlexMap NM_007282 LUA#16 (Experiment 2, Tretinoin): 58 and 53 and 61 (2×) and 69 and 64 and 59 and 62 | FlexMap NM_014333 LUA#26 (Experiment 2, Tretinoin): 720 (2×) and 704 and 706 and 712 and 662 and 633.5 and 726.5 | FlexMap NM_014366 LUA#61 (Experiment 2, Tretinoin): 298.5 and 321 and 304.5 and 297 and 291 and 286.5 and 300 and 310.5 | FlexMap NM_014573 LUA#70 (Experiment 2, Tretinoin): 178 and 154 and 187 and 179 and 161.5 and 172 and 157.5 and 198 | FlexMap NM_015201 LUA#57 (Experiment 2, Tretinoin): 241 and 245.5 and 266 and 252 and 243 and 230 and 244 and 268.5 | FlexMap NM_018115 LUA#63 (Experiment 2, Tretinoin): 1238 and 1270 and 1440 and 1028 and 1210 and 935.5 and 1175 and 1004 | FlexMap NM_018164 LUA#69 (Experiment 2, Tretinoin): 198 and 200 and 205.5 and 182 (2×) and 188.5 and 186 and 211 | FlexMap NM_018256 LUA#83 (Experiment 2, Tretinoin): 568 and 635.5 and 455 and 571 and 556 and 643 and 655 and 483.5 | FlexMap NM_018890 LUA#33 (Experiment 2, Tretinoin): 934 and 873 and 1071 and 983 and 992 and 923.5 and 879 and 988 | FlexMap NM_019058 LUA#75 (Experiment 2, Tretinoin): 177.5 and 194 (2×) and 192 and 181.5 and 179 and 176 and 171 | FlexMap NM_020117 LUA#78 (Experiment 2, Tretinoin): 697 and 734 (2×) and 750 and 739 and 606 and 654 and 748 | FlexMap NM_021103 LUA#41 (Experiment 2, Tretinoin): 2724 and 2581.5 and 2331.5 and 2558 and 2559 and 793 and 1990 and 2996.5 | FlexMap NM_021203 LUA#80 (Experiment 2, Tretinoin): 657.5 and 657 and 757.5 and 703 and 701.5 and 650 and 660 and 741 | FlexMap NM_021974 LUA#64 (Experiment 2, Tretinoin): 1286.5 and 1160 and 1272 and 1368.5 and 1315 and 1193.5 and 1269 and 1365 | FlexMap NM_024045 LUA#65 (Experiment 2, Tretinoin): 178 and 149 and 163.5 and 164.5 and 175.5 and 158 and 157 and 182 | FlexMap TFRC LUA#92 (Experiment 2, Tretinoin): 346 and 400.5 and 413 and 375 and 381 and 358 and 345.5 and 382 | FlexMap signal, transcript NM_000070 (LUA#2) [1]: 437.5 and 358 and 444 (2×) and 393 (2×) and 419 and 422 | FlexMap signal, transcript NM_000153 (LUA#10) [1]: 487 and 484 and 539 and 511 and 505 and 473 and 501 and 542 | FlexMap signal, transcript NM_000632 (LUA#12) [1]: 369.5 and 476 and 491.5 and 406 and 400 and 360.5 and 374 and 395

— patent US20110015080A1, “Solution-based methods for RNA expression profiling” (MASSACHUSETTS INSTITUTE OF TECHNOLOGY, priority 2005, published 2011)
